Experiments:
[1] = target: T1, α-glucosidase (sucrase) (Rattus norvegicus, UniProt P23739); assay: Measurement of sucrase (α-glucosidase) inhibiting activity with crude enzyme from rat intestinal acetone powder; assay type: biochemical; settings: for IC50: crude rat intestinal enzyme, sucrose substrate, 0.1 M maleate buffer pH 6.0, 37° C., 30 minutes; for α-glucosidase inhibiting activity (in words): summary of Table 1 results
T1 construct: The resulting supernatant was separated as a crude enzyme stock solution; tissue SIGMA; host or cells: rat intestine (acetone powder)
T1 sequence (P23739 whole entry): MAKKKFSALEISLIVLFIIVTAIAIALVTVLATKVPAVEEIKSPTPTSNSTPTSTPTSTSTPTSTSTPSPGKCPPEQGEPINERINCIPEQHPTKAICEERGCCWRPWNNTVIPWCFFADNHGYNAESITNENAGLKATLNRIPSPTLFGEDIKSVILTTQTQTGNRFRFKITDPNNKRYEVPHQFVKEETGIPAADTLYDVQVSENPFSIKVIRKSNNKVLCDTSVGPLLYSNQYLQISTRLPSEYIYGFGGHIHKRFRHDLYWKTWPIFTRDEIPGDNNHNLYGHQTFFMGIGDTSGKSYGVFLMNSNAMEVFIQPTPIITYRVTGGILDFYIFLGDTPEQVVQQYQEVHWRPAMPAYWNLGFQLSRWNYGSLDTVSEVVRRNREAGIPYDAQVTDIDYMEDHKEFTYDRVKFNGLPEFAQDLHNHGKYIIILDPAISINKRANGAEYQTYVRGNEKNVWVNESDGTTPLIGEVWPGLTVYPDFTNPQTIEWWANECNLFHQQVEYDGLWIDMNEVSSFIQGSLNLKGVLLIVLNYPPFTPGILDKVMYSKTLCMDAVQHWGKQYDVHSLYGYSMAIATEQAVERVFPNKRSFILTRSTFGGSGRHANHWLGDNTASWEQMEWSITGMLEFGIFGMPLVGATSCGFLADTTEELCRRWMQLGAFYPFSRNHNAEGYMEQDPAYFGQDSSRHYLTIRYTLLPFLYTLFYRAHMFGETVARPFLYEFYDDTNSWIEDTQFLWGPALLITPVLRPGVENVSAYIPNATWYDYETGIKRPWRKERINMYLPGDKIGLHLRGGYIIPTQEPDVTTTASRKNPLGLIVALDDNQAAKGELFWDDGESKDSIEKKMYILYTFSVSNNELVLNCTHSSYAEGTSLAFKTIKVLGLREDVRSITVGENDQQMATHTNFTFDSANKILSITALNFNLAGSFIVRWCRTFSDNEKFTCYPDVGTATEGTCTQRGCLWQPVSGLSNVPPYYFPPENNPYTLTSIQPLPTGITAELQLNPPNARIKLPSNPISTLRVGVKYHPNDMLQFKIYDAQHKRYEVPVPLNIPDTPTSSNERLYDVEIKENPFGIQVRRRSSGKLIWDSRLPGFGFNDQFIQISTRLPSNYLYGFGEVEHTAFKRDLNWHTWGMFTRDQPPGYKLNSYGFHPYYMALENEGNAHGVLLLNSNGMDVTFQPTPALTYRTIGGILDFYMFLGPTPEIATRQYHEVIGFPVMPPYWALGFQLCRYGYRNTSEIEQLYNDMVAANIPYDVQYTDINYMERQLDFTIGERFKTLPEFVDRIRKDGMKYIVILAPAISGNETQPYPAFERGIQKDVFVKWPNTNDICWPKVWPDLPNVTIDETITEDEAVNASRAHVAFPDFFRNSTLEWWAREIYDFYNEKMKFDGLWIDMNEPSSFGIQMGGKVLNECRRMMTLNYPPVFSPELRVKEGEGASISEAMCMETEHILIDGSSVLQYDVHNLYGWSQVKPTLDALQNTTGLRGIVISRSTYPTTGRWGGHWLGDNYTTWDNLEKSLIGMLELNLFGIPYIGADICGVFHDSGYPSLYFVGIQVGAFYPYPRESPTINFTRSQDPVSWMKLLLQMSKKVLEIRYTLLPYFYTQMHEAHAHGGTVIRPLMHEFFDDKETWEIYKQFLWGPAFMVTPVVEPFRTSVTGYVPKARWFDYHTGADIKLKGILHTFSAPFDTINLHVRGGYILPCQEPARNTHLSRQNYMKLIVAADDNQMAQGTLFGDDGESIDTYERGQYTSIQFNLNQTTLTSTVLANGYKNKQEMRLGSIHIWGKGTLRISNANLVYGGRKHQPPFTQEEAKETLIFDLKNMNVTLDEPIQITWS
Protocol: One gram intestinal acetone powder rat (manufactured by SIGMA) was suspended in 10 mL of 0.1 M maleate buffer, pH 6.0 and then centrifuged (3,000 rpm, 4° C., 20 min.). The resulting supernatant was separated as a crude enzyme stock solution. This crude enzyme stock solution was diluted at the degree of dilution previously determined in the following control test, to prepare a crude enzyme dilution which was then used in the subsequent measurement of sucrase inhibiting activity.
A buffer solution 50 μL and 100 μL of 74 mM aqueous sucrose solution were pipetted into each test tube and pre-heated for 3 minutes in a water bath at 37° C. A diluted crude enzyme stock solution 50 μL was added to this test tube and reacted at 37° C. for 30 minutes. After the reaction was finished, 800 μL purified water was added. The mixture was further heated at 80° C. for 3 minutes thereby inactivating the enzyme to terminate the reaction. The concentration of glucose in the reaction solution was quantified by using a commercial kit/mutarotase-glucose oxidase method (Glucose CII Test Wako, manufactured by Wako Pure Chemical Industries, Ltd.).
As the test substance, the reticulanol of the present invention, and Salacinol and kotalanol for comparison, all of which were obtained in Preparative Example 2 above, were used. A solution […] of the test substance in 0.1 M maleate buffer, pH 6.0 was introduced into each test tube (concentration of the test substance: 3 to 30 μg/mL), and 100 μL of 74 mM aqueous sucrose was pipetted into each test tube and pre-heated for 3 minutes in a water bath at 37° C. The above crude enzyme dilution 50 μL was added to each test tube and reacted at 37° C. for 30 minutes. After the reaction was finished, 800 μL purified water was added to each test tube, and the mixture was further heated at 80° C. for 3 minutes thereby inactivating the enzyme to terminate the reaction.
After the reaction was terminated, the concentration of glucose in the reaction solution was quantified by using the glucose CII Test Wako (manufactured by Wako Pure Chemical Industries, Ltd.).
An aqueous sucrose solution 100 μL was mixed with 50 μL of each test substance dissolved in a maleate buffer. Purified water 800 μL was added thereto and then 50 μL crude enzyme dilution was added thereto, and immediately the mixture was heated to […] to inactivate the enzyme. Thereafter, the concentration of glucose in the reaction solution was measured by the same method as described above.
Sucrase inhibiting activity was calculated from the following equation: Sucrase inhibiting activity (%)={(Glc0−Glcx)/Glc0}×100 wherein Glcx is a value obtained by subtracting the glucose concentration in the corresponding blank test from the concentration of glucose in the test sample, and Glc0 is the glucose concentration in the corresponding control.
An inhibition curve was prepared by plotting the inhibiting activity (%) calculated by the above equation on the ordinate and the concentration of each test substance (μg/mL) on the abscissa. From this inhibition curve, 50% inhibition concentration (IC50 value) was calculated as an indicator of sucrase inhibiting activity.

[2] = test system: α-glucosidase; settings: compared with marketed synthetic medicine Glucobay; cited from earlier work

Q: With `O=S(=O)([O-])OC(C(O)C[S+]1CC(O)C(O)C1CO)C(O)C(O)C(O)CO` (stereo not drawn) [Kotalanol, kotalanol] as the molecule, how does the IC50 [1] read?
A: Its IC50 is 424 nM.

Q: And the “α-glucosidase inhibiting activity (in words)” value [1]?
A: The value was “very strong α-glucosidase inhibiting activity”.

Q: What about the “α-glucosidase inhibiting activity compared with Glucobay” value [2] of the same molecule?
A: The value was “almost equivalent”.

Q: What does the source list for `O=S(=O)([O-])OC(C(O)C[S+]1CC(O)C(O)C1CO)C(O)C(O)CO` (stereo not drawn) [Reticulanol, reticulanol]?
A: α-glucosidase inhibiting activity relative to Salacinol ([1]; compared with Salacinol): at least twice as high; IC50 [1]: 963 nM; α-glucosidase inhibiting activity (in words) [1]: very strong α-glucosidase inhibiting activity

Q: Which IC50 [1] does the source give for `O=S(=O)([O-])O[C@H](CO)[C@@H](O)C[S+]1C[C@H](O)[C@@H](O)[C@@H]1CO` (stereo partly drawn) [Salacinol] here?
A: The IC50 was 2420 nM.

Q: What about the “α-glucosidase inhibiting activity (in words)” value [1] of the same molecule?
A: The value was “very strong α-glucosidase inhibiting activity”.

Q: What about the “α-glucosidase inhibiting activity compared with Glucobay” value [2] of the same molecule?
A: Its value is “almost equivalent”.

Reference: patent US20070037870A1, “Novel substance having alpha-glucosidase inhibiting activity and food containing the same” (MORISHITA JINTAN CO., LTD., priority 2003, published 2007)
